According to article PMC6663863, “The inositol hexakisphosphate kinases IP6K1 and -2 regulate human cellular phosphate homeostasis, including XPR1-mediated phosphate export” (The Journal of Biological Chemistry, 2019):

target: T1, SPX^XPR1 (recombinant His-tagged SPX domain of human XPR1) (Homo sapiens, UniProt Q9UBH6); assay: competition with [3H]IP6, PEG precipitation; assay type: binding
T1 construct: SPX domain only, N-terminal cytosolic part; residue borders not given, cloning primers encode start MKFAEHL and end PPLGAAQ-stop; His tag (modified pHisTrcA), HisTrap purified
T1 sequence (Q9UBH6 1-227): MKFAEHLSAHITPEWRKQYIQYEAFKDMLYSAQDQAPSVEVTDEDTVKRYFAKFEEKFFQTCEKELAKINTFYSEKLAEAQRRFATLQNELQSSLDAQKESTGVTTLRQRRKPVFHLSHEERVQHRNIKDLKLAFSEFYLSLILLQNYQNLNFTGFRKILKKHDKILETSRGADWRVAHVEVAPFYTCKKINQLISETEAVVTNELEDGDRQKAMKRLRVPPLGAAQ

**Q.** For `O=P(O)(O)O[C@@H]1[C@@H](OP(=O)(O)O)[C@@H](OP(=O)(O)O)[C@@H](OP(=O)(O)OP(=O)(O)O)[C@H](OP(=O)(O)O)[C@H]1OP(=O)(O)O` [1-IP7], which IC50 is on record?
**A.** ~8.4 µM

**Q.** `O=P(O)(O)O[C@H]1[C@@H](OP(=O)(O)O)[C@H](OP(=O)(O)O)[C@@H](OP(=O)(O)OP(=O)(O)O)[C@H](OP(=O)(O)O)[C@H]1OP(=O)(O)O` [5-IP7, 5-diphosphoinositol pentakisphosphate] was tested. Which IC50 did it give?
**A.** ~4.2 µM

**Q.** For `O=P(O)(O)O[C@@H]1[C@@H](OP(=O)(O)O)[C@H](OP(=O)(O)O)[C@H](O)[C@H](OP(=O)(O)O)[C@H]1OP(=O)(O)O` [I(1,3,4,5,6)P5], which IC50 is on record?
**A.** 28.1 ± 3.9 µM

**Q.** Which IC50 does the source give for `O=P(O)(O)O[C@H]1[C@H](OP(=O)(O)O)[C@@H](OP(=O)(O)O)[C@H](OP(=O)(O)O)[C@@H](OP(=O)(O)O)[C@H]1OP(=O)(O)O` [IP6, inositol hexakisphosphate] here?
**A.** ~9.8 µM
